Results on 12 compounds are retold here after article PMC7343278, “A Meroisoprenoid, Heptenolides, and C-Benzylated Flavonoids from Sphaerocoryne gracilis ssp. gracilis” (Journal of Natural Products, 2020).

The subject of assay [1] is Plasmodium falciparum chloroquine-sensitive (3D7) strain. The experiment in a line: Antiplasmodial high-content imaging assay, 3D7 strain. The settings on record: for IC50: Plasmodium falciparum; for inhibition of plasmodial growth at 20 μM: 20 μM concentration, strain not specified (3D7/Dd2). It counts as cell-based.
In assay [2] the test system is Plasmodium falciparum chloroquine-resistant (Dd2) strain. The assay can be described thus: Antiplasmodial high-content imaging assay, Dd2 strain. It counts as cell-based. On the procedure: (§1) Antiplasmodial activity was determined using a high-content imaging assay, as described previously.[10],[24] The cytotoxicity of the antiplasmodial compounds was evaluated against human embryonic kidney cells (HEK-293) following an established protocol.[10],[24] Human red blood cells for culture of P. falciparum were provided by the Australian Red Cross Blood Bank in accordance with their routine Material Transfer Agreement (MTA) for nonclinical blood product supply. These bioassay studies were approved by the Griffith University Biosafety and Human Ethics Committee (GU ref no. ESK/03/12/HREC; 03/08/11019).

The subject of assay [3] is HEK-293 human embryonic kidney cells. The assay can be described thus: Cytotoxicity against human embryonic kidney cells. It counts as cell-based. The settings on record: for inhibition at 20 µM: read-out: Percentage growth inhibition at 20 μM, HEK-293. As to the method: as §1
Assay [4] relates to cap-dependent and independent translation initiation. The assay can be described thus: Translation inhibition assay (luciferase model). It counts as biochemical. The note with it: in vitro. On the procedure: Luciferase inhibition activity assays were performed following standard procedures described previously.[9],[10]
Setting [5] is: P. falciparum 3D7 (chloroquine-sensitive), read-out: IC50 3D7.
[6] abbreviates: P. falciparum Dd2 (chloroquine-resistant), read-out: IC50 Dd2.

The structures appear in SMILES notation. Like-named read-outs stand apart in the source and are kept apart here.

In general, IC50 refers to the point on the concentration scale where inhibition reaches its midpoint. One may read the inhibition as the drop in the measured response relative to a control, in per cent. On to `CCN(CC)CCCC(C)Nc1ccnc2cc(Cl)ccc12` (stereo not drawn) [chloroquine], for which the 50% inhibitory concentration (IC50) in assay [1] (3D7, read-out: IC50 3D7) worked out at 4.5 nM; in assay [2] (DD2, read-out: IC50 Dd2), 46 nM. In assay [3] (HEK293, read-out: Percentage growth inhibition at 40 μM, HEK-293), the inhibition at 40 µM is 60%.

Turning to `COc1ccc(C[C@H](N)C(=O)N[C@H]2[C@@H](O)[C@H](n3cnc4c(N(C)C)ncnc43)O[C@@H]2CO)cc1` [puromycin], the IC50 was found to be 23 nM in assay [1] (setting [5]); 45 nM in assay [2] (setting [6]); 360 nM in assay [3] (HEK293, HEK-293 cells).

In the case of `C[C@H]1[C@@H](O)O[C@@H]2O[C@@]3(C)CC[C@H]4[C@H](C)CC[C@@H]1[C@@]24OO3` [DHA], the inhibition at 20 µM in assay [3] (HEK293, HEK-293 cells) came to 50%.

Regarding `O=c1cc(-c2ccccc2)oc2c(Cc3cccc(O)c3O)c(O)cc(O)c12` [compound 5, 8-(2,3-dihydroxybenzyl)-5,7-dihydroxy-2-phenyl-4H-chromen-4-one], the “inhibition of plasmodial growth at 20 μM” value in assay [1] is “inhibited plasmodial growth moderately”. Besides, the translational inhibitory activity result in assay [4] is “none showed significant translational inhibitory activity”.

Regarding `O=C1C=C/C(=C/[C@H](O)COC(=O)c2ccccc2)O1` [compound 9, (Z)-melodorinol], the translational inhibitory activity entry in assay [4] is given as “none showed significant translational inhibitory activity”.

`O=C1C[C@@H](c2ccccc2)Oc2cc(O)c(Cc3cccc(O)c3O)c(O)c21` [compound 4, (S)-6-(2,3-dihydroxybenzyl)-5,7-dihydroxy-2-phenylchroman-4-one]: the “inhibition of plasmodial growth at 20 μM” value in assay [1] is reported as “inhibited plasmodial growth moderately”. For the same compound, the translational inhibitory activity entry in assay [4] is “none showed significant translational inhibitory activity”.

As for `O=c1cc(-c2ccccc2)oc2cc(O)cc(O)c12` [compound 12, 5,7-dihydroxyflavone], the translational inhibitory activity entry in assay [4] is “none showed significant translational inhibitory activity”.

Take `COC(=O)/C=C/C(=O)C[C@H](O)COC(=O)c1ccccc1` [compound 10, 7-hydroxy-6-hydromelodienone]: the inhibition at 40 µM in assay [3] (HEK293, HEK-293 cells, 40 μM, read-out: Percentage growth inhibition at 40 μM, HEK-293) is 100%. The translational inhibitory activity entry in assay [4] is listed as “none showed significant translational inhibitory activity”.

On to `COc1ccc2nc3cc(Cl)ccc3c(Nc3cc(CN4CCCC4)c(O)c(CN4CCCC4)c3)c2n1` [pyronaridine], for which the 50% inhibitory concentration (IC50) in assay [1] (setting [5]) amounted to 3.6 nM; in assay [2] (setting [6]) it was 7.5 nM; in assay [3] (HEK293, HEK-293 cells) it was 1800 nM.

As for `O=C1C[C@@H](c2ccccc2)Oc2c(Cc3cccc(O)c3O)c(O)c(Cc3cccc(O)c3O)c(O)c21` [compound 6, 3″-hydroxygracinol], in assay [4], the translational inhibitory activity entry was “none showed significant translational inhibitory activity”.

In the case of `CCc1nc(N)nc(N)c1-c1ccc(Cl)cc1` [pyrimethamine], inhibition in assay [3] (HEK293, HEK-293 cells) was half-maximal at 4200 nM (IC50).

Consider `C[C@H]1[C@H](OC(=O)CCC(=O)O)O[C@@H]2O[C@@]3(C)CC[C@H]4[C@H](C)CC[C@@H]1[C@@]24OO3` [artesunate], for which the inhibition at 20 µM in assay [3] (HEK293, HEK-293 cells) amounted to 75%.
